The nature of series [1]: Dynamic light scattering (zetasizer). In kind it is physicochemical. The procedure: The dendrimeric solutions of peptides were transferred into transparent cuvette with care to remove bubble formation. The sample was then transferred to the cell holder and study was performed at 90° scattering angle at room temperature. The standard viscosity and refractive index were kept constant and kept at 1.0, 1.33 and 80.4 mPa, respectively.

Series [2] relates to Acinetobacter baumannii (DSM 30007). The format is cell-based. Particulars: A. baumannii (DSM 30007), 18–24 h, aerobic. How it is done: (§1) Experiments were performed in triplicate (n = 3).
Series [3] concerns Helicobacter pylori (ATCC 43504). The format is cell-based. Particulars: H. pylori (ATCC 43504), 18–24 h, micro-aerobic. How it is done: as §1
The subject of series [4] is Escherichia coli (ATCC 8739). The format is cell-based. The note with it: E. coli (ATCC 8739), 18–24 h, aerobic. The procedure: as §1
Series [5] deals with Staphylococcus aureus (ATCC 6538). In kind it is cell-based. The note with it: S. aureus (ATCC 6538), 18–24 h, aerobic. The procedure: as §1
In a further series the test system is human red blood cells. The series can be described thus: Hemolysis assay. In kind it is cell-based. The note with it: for hemolysis: 100 µM; for estimated HC50 (concentration causing 50% of hemolysis): 1 h. The procedure:
(§2) The ability of dendrimers and peptides to cause hemolysis was evaluated using human whole red blood cells. Briefly, fresh human erythrocytes (obtained from Divbio Science Europe, NL) were washed 3 times by centrifugation at 800× g for 5 min with sterile phosphate buffer saline (PBS, pH 7.4). The washed erythrocytes were resuspended in complete culture media (DMEM supplemented with 10% FBS) to a final concentration of 8%. Human erythrocytes were then added into sterile 96-well microplates (150 µL per well) and were exposed to increasing concentrations of peptides or dendrimers. After 1 h incubation at 37 °C, plates were centrifuged at 800× g for 5 min. Then, 100 µL of supernatant were carefully transferred to a new 96-well microplate and absorbance was measured at 450 nm using microplate reader. Triton-X100 at 0.1% (v/v) was used as positive control giving 100% hemolysis. The HC50 values of peptides and dendrimers (i.e., the concentration of compound causing 50% of hemolysis) were calculated using GraphPad® Prism 7 software.

A short description of series [6]: Stability study at different temperatures (absorbance spectrum). Particulars: room temperature, 35 °C, 40 °C, 50 °C and 60 °C. The procedure:
The stability of dendrimers at different pH values and temperatures was also determined. For this, a 510 model digital pH meter (Oakton Eutech) with working electrode of glass material and a Ag/AgCl as reference electrode was used for the pH record. Dilute solutions of HCl and NaOH were added to adjust the pH of the solution from 2 to 12. Similarly, stability of monomer [G10a]-SHa and its three dendrimers was checked by heating the peptide dendrimers on different temperature ranges, i.e., room temperature, 35 °C, 40 °C, 50 °C and 60 °C.

The test system of series [7] is human lung fibroblasts IMR-90. In kind it is cell-based. Particulars: 48 h. How it is done:
(§3) The antiproliferative effect of the peptides was determined by using human cells, as previously described. Human cancer cells used in this experiment were ovarian cancer cells A2780 (obtained from ECACC), breast cancer cells MCF-7 (obtained from ATCC), liver cancer cells HepG2 (obtained from ATCC), lung cancer cells A549 (obtained from ATCC), pancreatic cancer cells MiaPaCa (obtained from ATCC), prostate cancer cells PC-3 (obtained from ATCC), and skin cancer cells MNT-1 (generous gift from the National Institute of Health (NIH). Normal human cells used were human lung fibroblasts IMR-90 (obtained from ATCC). All cells were cultured in DMEM which was supplemented with 10% fetal bovine serum (FBS), 1% L-glutamine, and 1% antibiotics (all from Invitrogen) at 37 °C in 5% CO2 incubator. For cytotoxicity assay, cells were maintained in 25 cm^2 flasks. Cells were separated from flasks using trypsin-EDTA solution (from Thermofisher) and counted using Malassez chamber and diluted in culture medium before seeding into 96-well cell-culture plates (Greiner bio-one, Paris, France) at approximately 3000 cells/well. Cells were then treated with increasing concentration of peptides diluted in culture medium (1:2 serial dilution, from 100 µM to 0 µM). After 48 h, medium was aspirated and number of viable cells was colorimetrically determined using resazurin-based assay following manufacturer’s instructions. The fluorescence intensity was measured using microplate reader (Biotek, Santa Clara, CA, USA, Synergy Mx) with an excitation wavelength of 530 nm and an emission wavelength of 590 nm. The fluorescence values were normalized by the controls (untreated cells) and expressed as percent of proliferation. The IC50 values of peptides (i.e., the concentrations causing 50% inhibition of cell proliferation) were determined using GraphPad® Prism 7 software.

The subject of the next series is human cancer cells. The format is cell-based. The procedure: as §3
The next series deals with skin cancer cells MNT-1. In kind it is cell-based, human. Particulars: 48 h. The procedure: as §3
In another series the test system is lung cancer cells A549. In kind it is cell-based, human. Particulars: 48 h. How it is done:
as §3

The subject of series [8] is prostate cancer cells PC-3. In kind it is cell-based, human. Particulars: 48 h. The procedure: as §3
In series [9] the test system is breast cancer cells MCF-7. The format is cell-based, human. Particulars: 48 h. How it is done: as §3
In series [10] the test system is ovarian cancer cells A2780. In kind it is cell-based, human. Particulars: 48 h. The procedure:
as §3

For a further series, the system named is liver cancer cells HepG2. The format is cell-based, human. The note with it: 48 h. The procedure: as §3
The subject of series [11] is pancreatic cancer cells MiaPaCa. The format is cell-based, human. The note with it: 48 h. The procedure: as §3
A short description of series [12]: Stability study at different pH. Particulars: pH 2 to pH 14. The procedure:
The stability of dendrimers at different pH values and temperatures was also determined. For this, a 510 model digital pH meter (Oakton Eutech) with working electrode of glass material and a Ag/AgCl as reference electrode was used for the pH record. […] Similarly, stability of monomer [G10a]-SHa and its three dendrimers was checked by heating the peptide dendrimers on different temperature ranges, i.e., room temperature, 35 °C, 40 °C, 50 °C and 60 °C.

Series [13] deals with Bacillus subtilis (ATCC 6633). The format is cell-based. Particulars: B. subtilis (ATCC 6633), 18–24 h, aerobic. How it is done:
as §1

The test system of series [14] is Enterobacter cloacae (DSM 30054). The format is cell-based. The note with it: E. cloacae (DSM 30054), 18–24 h, aerobic. The procedure:
as §1

Series [15] deals with Pseudomonas aeruginosa (ATCC 9027). The format is cell-based. Particulars: P. aeruginosa (ATCC 9027), 18–24 h, aerobic. How it is done:
as §1

For series [16], the system named is Klebsiella pneumoniae (DSM 26371). In kind it is cell-based. Particulars: K. pneumoniae (DSM 26371), 18–24 h. The procedure: as §1
Series [17] deals with Enterococcus faecalis (DSM 2570). In kind it is cell-based. Particulars: E. faecalis (DSM 2570), 18–24 h, micro-aerobic. How it is done: as §1
Series [18] concerns Enterococcus faecium (DSM 20477). In kind it is cell-based. Particulars: E. faecium (DSM 20477), 18–24 h, micro-aerobic. The procedure:
as §1

Another series can be described thus: Hemolysis assay. The format is cell-based, human. Particulars: human; at 100 µM, 1 h, 37 °C, relative to Triton X-100 0.1%. How it is done:
as §2

Read-outs that look alike come from different tables or passages of the source. Where a SMILES comes first, the peptide text is derived from it. Bridges are numbered along the chain shown (N, C = ends). Roman numbers before positions name the chains, in order. Where no end group is shown, it is not given here. [ ]: non-standard residue; d: D form.

For the compound “I: H-FLSGIVGML[dA]KLFKK-NH2 / II: H-FLSGIVGML[dA]KLF / III: H-FLSGIVGML[dA]KLF (amide I:14-III:C, I:15-II:C) [[G10a]3-SHa]”, the “Pdi Values (polydispersity index)” value in series [1] (DLS) is on record as 0.462. Moreover, the average hydrodynamic diameter entry in [1] (DLS) is given as “about 46.13 nm”. In addition, in series [1] (DLS, room temperature), the Z-Average stood at 46.13 nm·days. Besides, the “Zeta Potential” value in series [1] (zetasizer) was −71.2 mV. In addition, the “minimal inhibitory concentration (MIC)” value in series [2] came out at 3.12 µM; in [3] it was 25 µM; in series [4], 25 µM; in [5] it was 6.25 µM. For the same compound, the “hemolytic activity (in words)” value in the series on human red blood cells is “high hemolytic activity”. Besides, the hemolysis entry with human red blood cells is given as “complete hemolysis”. In addition, the “estimated HC50 (concentration causing 50% of hemolysis)” value in the series on human red blood cells (red cells of human) is 10.46 ± 0.36 µM. Moreover, in series [6], the “stability at different temperatures” value is “considerable stability up to 60 °C”. The IC50 was determined as 13.9 ± 0.42 µM in series [7]; 3.76 ± 1.87 µM in the series with human cancer cells (48 h); 2.24 ± 0.05 µM in the series on skin cancer cells MNT-1; 3.74 ± 3.46 µM in the series on lung cancer cells A549; 1.84 ± 0.17 µM in series [8]; 3.77 ± 0.12 µM in [9]. Moreover, the IC50 in [10] stood at 2.31 ± 0.08 µM; with liver cancer cells HepG2, 5.49 ± 0.37 µM; in series [11], 6.94 ± 0.27 µM. Also, the “times more active than [G10a]-SHa at inhibiting multiplying cancer cells” value in the series on human cancer cells (from mean IC50 on human cancer cells) was 4.8 times. For the same compound, in series [12], the “stability at different pH” value is “significantly stable at pH values up to 10 and unstable at high pH values of 12 and 14”.

In the case of `CC[C@H](C)[C@H](NC(=O)CNC(=O)[C@H](CO)NC(=O)[C@H](CC(C)C)NC(=O)[C@@H](N)Cc1ccccc1)C(=O)N[C@H](C(=O)NCC(=O)N[C@@H](CCSC)C(=O)N[C@@H](CC(C)C)C(=O)N[C@H](C)C(=O)N[C@@H](CCCCN)C(=O)N[C@@H](CC(C)C)C(=O)N[C@@H](Cc1ccccc1)C(=O)NCCCC[C@H](NC(=O)[C@H](Cc1ccccc1)NC(=O)[C@H](CC(C)C)NC(=O)[C@H](CCCCN)NC(=O)[C@@H](C)NC(=O)[C@H](CC(C)C)NC(=O)[C@H](CCSC)NC(=O)CNC(=O)[C@@H](NC(=O)[C@@H](NC(=O)CNC(=O)[C@H](CO)NC(=O)[C@H](CC(C)C)NC(=O)[C@@H](N)Cc1ccccc1)[C@@H](C)CC)C(C)C)C(N)=O)C(C)C` [[G10a]2-SHa] (HELM PEPTIDE1{F.L.S.G.I.V.G.M.L.[dA].K.L.F.K.[am]}|PEPTIDE2{F.L.S.G.I.V.G.M.L.[dA].K.L.F}$PEPTIDE1,PEPTIDE2,14:R3-13:R2$$$V2.0), the “hemolytic activity (in words)” value in the series on human red blood cells is recorded as “high hemolytic activity”. Moreover, the hemolysis result with human red blood cells is “complete hemolysis”. Moreover, the “estimated HC50 (concentration causing 50% of hemolysis)” value with human red blood cells (red cells of human) was 11.55 ± 0.38 µM. Besides, the “stability at different temperatures” value in series [6] was “considerable stability up to 60 °C”. The IC50 turned out to be 22.3 ± 0.4 µM in series [7]; 6.85 ± 3.66 µM in the series with human cancer cells (48 h); 4.72 ± 0.36 µM with skin cancer cells MNT-1; 3.79 ± 1.61 µM in the series with lung cancer cells A549; 6.31 ± 0.66 µM in [8]; 5.69 ± 1.46 µM in [9]. The IC50 stood at 4.42 ± 0.06 µM in series [10], 14.3 ± 1.37 µM in the series with liver cancer cells HepG2 and 8.71 ± 0.35 µM in [11]. Further, the “stability at different pH” value in series [12] was “significantly stable at pH values up to 10 and unstable at high pH values of 12 and 14”.

In the case of “FLSGIVGMLGKLF-NH2 [Temporin SHa, H-Phe^1-Leu^2-Ser^3-Gly^4-Ile^5-Val^6-Gly^7-Met^8-Leu^9-Gly^10-Lys^11-Leu^12-Phe^13-NH2]”, the “minimal inhibitory concentration (MIC)” value worked out at 6.25 µM in series [2]; 1.56 µM in series [13]; 3.12 µM in [3]; 50 µM in series [14]; 50 µM in series [4]; 50 µM in series [15]. Also, the “minimal inhibitory concentration (MIC)” value in [16] amounted to 50 µM; in series [17] it was 12.5 µM; in series [18], 6.25 µM; in series [5], 3.12 µM. This compound also had a hemolysis at 1 h, 100 µM in the series “Hemolysis assay” of 24.5 ± 1.88%. In addition, in the series on human red blood cells (human erythrocytes, 37 °C), the “estimated HC50 (concentration causing 50% of hemolysis)” value is on record as 266.20 ± 41.27 µM. Moreover, the IC50 was > 100 µM in series [7] (Human Normal Fibroblast (IMR-90), read-out: IC50 (cell proliferation)); > 100 µM in the series on human cancer cells (all cells except breast cancer MCF-7, up to 100 µM, read-out: IC50 on the human cells tested other than MCF-7); > 100 µM with skin cancer cells MNT-1 (Skin Cancer (MNT-1), read-out: IC50 (cell proliferation)); > 100 µM in the series on lung cancer cells A549 (Lung Cancer (A549), read-out: IC50 (cell proliferation)); > 100 µM in series [8] (Prostate Cancer (PC-3), read-out: IC50 (cell proliferation)); 20.4 ± 5.64 µM in [9] (Breast Cancer (MCF-7), read-out: IC50 (cell proliferation)). Further, the IC50 was > 100 µM in [10] (Ovarian Cancer (A2780), read-out: IC50 (cell proliferation)); > 100 µM in the series on liver cancer cells HepG2 (Liver Cancer (HepG-2), read-out: IC50 (cell proliferation)); > 100 µM in series [11] (Pancreatic Cancer (MiaPaCa), read-out: IC50 (cell proliferation)).
